Measured values reported in PubChem BioAssay AID2060484 (Molecular Pharmacology Branch, DTP, NCI, 2025).

System: SUM149PT spheroids with HUVEC/MSC, viability
Experiment: Anticancer human tumor SUM149PT cell line growth inhibition [GQUAD];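 further: spheroids exposed to drugs for seven days before readout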;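 on viability, T/C: percent viability relative to DMSO vehicle control taken as 100%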
Settings: for IC50: curve of first compound; for viability, T/C: stronger effect = lower value
Summary of the method: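 Tumor cells were grown as complex spheroids with HUVEC endothelial cells and mesenchymal stem cells as stroma. G-quadruplex stabilizers were combined with targeted agents over half-log dilutions from near the clinical Cmax, or from 10 microM.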

[1] = second compound 0.0316 µM, first compound 0.0316 µM
[2] = second compound 0.0316 µM, first compound 0.1 µM
[3] = second compound 0.0316 µM, first compound 0.316 µM
[4] = second compound 0.0316 µM, first compound 1 µM
[5] = second compound 0.0316 µM, first compound 3.16 µM
[6] = second compound 0.0316 µM, first compound 10 µM
[7] = second compound 0.1 µM, first compound 0.0316 µM
[8] = second compound 0.1 µM, first compound 0.1 µM
[9] = second compound 0.1 µM, first compound 0.316 µM
[10] = second compound 0.1 µM, first compound 1 µM
[11] = second compound 0.1 µM, first compound 3.16 µM
[12] = second compound 0.1 µM, first compound 10 µM
[13] = second compound 0.316 µM, first compound 0.0316 µM
[14] = second compound 0.316 µM, first compound 0.1 µM
[15] = second compound 0.316 µM, first compound 0.316 µM
[16] = second compound 0.316 µM, first compound 1 µM
[17] = second compound 0.316 µM, first compound 3.16 µM
[18] = second compound 0.316 µM, first compound 10 µM
[19] = second compound 1 µM, first compound 0.0316 µM
[20] = second compound 1 µM, first compound 0.1 µM
[21] = second compound 1 µM, first compound 0.316 µM
[22] = second compound 1 µM, first compound 1 µM
[23] = second compound 1 µM, first compound 3.16 µM
[24] = second compound 1 µM, first compound 10 µM
[25] = second compound 3.16 µM, first compound 0.0316 µM
[26] = second compound 3.16 µM, first compound 0.1 µM
[27] = second compound 3.16 µM, first compound 0.316 µM
[28] = second compound 3.16 µM, first compound 1 µM
[29] = second compound 3.16 µM, first compound 3.16 µM
[30] = second compound 3.16 µM, first compound 10 µM
[31] = second compound 10 µM, first compound 0.0316 µM
[32] = second compound 10 µM, first compound 0.1 µM
[33] = second compound 10 µM, first compound 0.316 µM
[34] = second compound 10 µM, first compound 1 µM
[35] = second compound 10 µM, first compound 3.16 µM
[36] = second compound 10 µM, first compound 10 µM

## Cc1cccc(N(C)C(=O)C2C(O)CCN2c2nc(C)cc(C(F)(F)F)c2C#N)c1 (centres undefined) + CN(C)c1ccc(Nc2c3ccc(NC(=O)CCN4CCCC4)cc3nc3cc(NC(=O)CCN4CCCC4)ccc23)cc1
Second compound 0.0316 µM
  IC50: > 10 µM
Second compound 0.1 µM
  IC50: > 10 µM
Second compound 0.316 µM
  IC50: > 10 µM
Second compound 1 µM
  IC50: > 10 µM
Second compound 3.16 µM
  IC50: > 10 µM
Second compound 10 µM
  IC50: 4.02 µM
[1]
  viability, T/C: 97.4%
[2]
  viability, T/C: 103%
[3]
  viability, T/C: 104%
[4]
  viability, T/C: 103%
[5]
  viability, T/C: 107%
[6]
  viability, T/C: 110%
[7]
  viability, T/C: 108%
[8]
  viability, T/C: 95.3%
[9]
  viability, T/C: 91.5%
[10]
  viability, T/C: 100%
[11]
  viability, T/C: 98.7%
[12]
  viability, T/C: 103%
[13]
  viability, T/C: 92.7%
[14]
  viability, T/C: 93.7%
[15]
  viability, T/C: 88.7%
[16]
  viability, T/C: 101%
[17]
  viability, T/C: 94%
[18]
  viability, T/C: 90.6%
[19]
  viability, T/C: 85.8%
[20]
  viability, T/C: 85.2%
[21]
  viability, T/C: 76.2%
[22]
  viability, T/C: 87.9%
[23]
  viability, T/C: 84.9%
[24]
  viability, T/C: 81.5%
[25]
  viability, T/C: 99.2%
[26]
  viability, T/C: 71%
[27]
  viability, T/C: 77.2%
[28]
  viability, T/C: 77.1%
[29]
  viability, T/C: 91.2%
[30]
  viability, T/C: 68%
[31]
  viability, T/C: 82.1%
[32]
  viability, T/C: 82.3%
[33]
  viability, T/C: 74.3%
[34]
  viability, T/C: 76%
[35]
  viability, T/C: 53%
[36]
  viability, T/C: 37.9%

## CC1COCCN1c1cc(C2(S(C)(=N)=O)CC2)nc(-c2ccnc3[nH]ccc23)n1 (centres undefined) + CN(C)c1ccc(Nc2c3ccc(NC(=O)CCN4CCCC4)cc3nc3cc(NC(=O)CCN4CCCC4)ccc23)cc1
Second compound 0.0316 µM
  IC50: 2.65 µM
Second compound 0.1 µM
  IC50: 2.76 µM
Second compound 0.316 µM
  IC50: 2.31 µM
Second compound 1 µM
  IC50: 2.23 µM
Second compound 3.16 µM
  IC50: 1.9 µM
Second compound 10 µM
  IC50: 1.92 µM
[1]
  viability, T/C: 106%
[2]
  viability, T/C: 91.5%
[3]
  viability, T/C: 97.2%
[4]
  viability, T/C: 80.9%
[5]
  viability, T/C: 44.2%
[6]
  viability, T/C: 29.4%
[7]
  viability, T/C: 97.8%
[8]
  viability, T/C: 103%
[9]
  viability, T/C: 81.5%
[10]
  viability, T/C: 89.4%
[11]
  viability, T/C: 44.7%
[12]
  viability, T/C: 25.2%
[13]
  viability, T/C: 90.3%
[14]
  viability, T/C: 90.4%
[15]
  viability, T/C: 83.2%
[16]
  viability, T/C: 74.7%
[17]
  viability, T/C: 40.4%
[18]
  viability, T/C: 29.6%
[19]
  viability, T/C: 90.4%
[20]
  viability, T/C: 82.7%
[21]
  viability, T/C: 77.5%
[22]
  viability, T/C: 69.5%
[23]
  viability, T/C: 41.1%
[24]
  viability, T/C: 22.5%
[25]
  viability, T/C: 84.2%
[26]
  viability, T/C: 90.7%
[27]
  viability, T/C: 86.1%
[28]
  viability, T/C: 69.7%
[29]
  viability, T/C: 34.3%
[30]
  viability, T/C: 23.4%
[31]
  viability, T/C: 95.8%
[32]
  viability, T/C: 81.4%
[33]
  viability, T/C: 88.6%
[34]
  viability, T/C: 67%
[35]
  viability, T/C: 36.9%
[36]
  viability, T/C: 24.9%
